Values after ≈ are worked out from the molar mass of the structure shown.
Assays:
[1] = solubility in various organic solvents; format: physicochemical; details: cis isomer, in words
test organisms = assay: anti-bacterial activity as determined by standard tests; format: cell-based; details: in words
From the text: Many of the β-lactams described here have anti-bacterial activity as determined by standards tests. […] The novel β-lactams of the invention are also useful intermediates for the preparation of complex substituted amino acids which can then be polymerized to form polymers. The amino acids are formed by 1,2-cleavage of the β-lactams with an alkali metal hydroxide or alkoxide such as sodium methoxide in a lower alkanol such as methanol to form the corresponding alkali metal salt of the resulting 3-aminopropionic acid which can be acidified to form the corresponding free amino acid.
(§1) A stock solution of the test compounds at a concentration of […] in 0.05 molar phosphate buffer solution at a pH of 6.5 was prepared and two-fold dilutions were made with sterile buffer. 1 cc quantities of each dilution were then incorporated into 19 cc of brain heart infusion agar in sterile petri dishes. The hardened surface was then inoculated with the test organisms and it was then incubated for 18 hours at 37°C. The minimum inhibitory concentration (MIC) which is the least amount of compound completely inhibiting the test organism is determined in mg/cc.

[2] = tested on: Bacillus Subtilis ATCC 6633; assay: MIC by two-fold agar dilution (brain heart infusion agar), Bacillus subtilis; format: cell-based; details: ATCC6633, 18 hours at 37°C, pH 6.5 buffer, read-out: minimum inhibitory concentration (MIC)
Protocol: as §1

[3] = tested on: Staphylococcus Aureus A 321; assay: MIC by two-fold agar dilution (brain heart infusion agar), Staphylococcus aureus A 321; format: cell-based; details: strain A 321, 18 hours at 37°C, pH 6.5 buffer, read-out: minimum inhibitory concentration (MIC)
Protocol: as §1

[4] = tested on: Staphylococcus Aureus A 355; assay: MIC by two-fold agar dilution (brain heart infusion agar), Staphylococcus aureus A 355; format: cell-based; details: strain A 355, 18 hours at 37°C, pH 6.5 buffer, read-out: minimum inhibitory concentration (MIC)
Protocol: as §1

[5] = tested on: Staphylococcus Aureus 2160'; assay: MIC by two-fold agar dilution (brain heart infusion agar), Staphylococcus aureus 2160'; format: cell-based; details: strain 2160', 18 hours at 37°C, pH 6.5 buffer, read-out: minimum inhibitory concentration (MIC)
Protocol: as §1

SMILES | solubility in various organic solvents [1] | antibacterial activity (test organisms) | MIC [2] | MIC [3] | MIC [4] | MIC [5]
O=C(O)c1ccc(N2C(=O)[C@@H](Oc3ccccc3)[C@H]2c2ccccc2O)cc1 (relative stereo) [cis-1-(p-carboxyphenyl)-3-phenoxy-4-(o-hydroxyphenyl)azetidin-2-one] | low solubility in various organic solvents | – | – | – | – | –
COc1ccc(C2C(Oc3ccccc3)C(=O)N2c2ccc(C(=O)O)cc2)cc1 (stereo not drawn) [1-(p-carboxyphenyl)-3-phenoxy-4-(p-methoxyphenyl)-azetidin-2-one] | – | outstanding for their antibacterial activity | – | – | – | –
COc1ccc(N2C(=O)C(Oc3ccccc3)C2c2ccc(C(=O)O)cc2)cc1 (stereo not drawn) [1-(p-methoxyphenyl)-3-phenoxy-4-(p-carboxyphenyl)-azetidin-2-one] | – | outstanding for their antibacterial activity | 100 mg/mL (≈ 257 mM) | 100 mg/mL (≈ 257 mM) | 100 mg/mL (≈ 257 mM) | 100 mg/mL (≈ 257 mM)
O=C(O)c1ccc(N2C(=O)C(Oc3ccccc3)C2c2ccco2)cc1 (stereo not drawn) [1-p-carboxyphenyl-3-phenoxy-4-α-furyl-azetidin-2-one] | – | outstanding for their antibacterial activity | 50 mg/mL (≈ 143 mM) | – | – | –

Reference: patent US3943123A, “Novel beta-lactams and novel process” (Koninklijke Nederlandsche Gist-En Spiritusfabriek N.V., priority 1974, dated 1976)
